Common to all, as to assay: Kinase profile (33P ATP filter binding)
Holding throughout (assay type): biochemical

One assay has as its target T1, ASK1 (Homo sapiens, UniProt Q99683).
T1 sequence (Q99683 1-1374): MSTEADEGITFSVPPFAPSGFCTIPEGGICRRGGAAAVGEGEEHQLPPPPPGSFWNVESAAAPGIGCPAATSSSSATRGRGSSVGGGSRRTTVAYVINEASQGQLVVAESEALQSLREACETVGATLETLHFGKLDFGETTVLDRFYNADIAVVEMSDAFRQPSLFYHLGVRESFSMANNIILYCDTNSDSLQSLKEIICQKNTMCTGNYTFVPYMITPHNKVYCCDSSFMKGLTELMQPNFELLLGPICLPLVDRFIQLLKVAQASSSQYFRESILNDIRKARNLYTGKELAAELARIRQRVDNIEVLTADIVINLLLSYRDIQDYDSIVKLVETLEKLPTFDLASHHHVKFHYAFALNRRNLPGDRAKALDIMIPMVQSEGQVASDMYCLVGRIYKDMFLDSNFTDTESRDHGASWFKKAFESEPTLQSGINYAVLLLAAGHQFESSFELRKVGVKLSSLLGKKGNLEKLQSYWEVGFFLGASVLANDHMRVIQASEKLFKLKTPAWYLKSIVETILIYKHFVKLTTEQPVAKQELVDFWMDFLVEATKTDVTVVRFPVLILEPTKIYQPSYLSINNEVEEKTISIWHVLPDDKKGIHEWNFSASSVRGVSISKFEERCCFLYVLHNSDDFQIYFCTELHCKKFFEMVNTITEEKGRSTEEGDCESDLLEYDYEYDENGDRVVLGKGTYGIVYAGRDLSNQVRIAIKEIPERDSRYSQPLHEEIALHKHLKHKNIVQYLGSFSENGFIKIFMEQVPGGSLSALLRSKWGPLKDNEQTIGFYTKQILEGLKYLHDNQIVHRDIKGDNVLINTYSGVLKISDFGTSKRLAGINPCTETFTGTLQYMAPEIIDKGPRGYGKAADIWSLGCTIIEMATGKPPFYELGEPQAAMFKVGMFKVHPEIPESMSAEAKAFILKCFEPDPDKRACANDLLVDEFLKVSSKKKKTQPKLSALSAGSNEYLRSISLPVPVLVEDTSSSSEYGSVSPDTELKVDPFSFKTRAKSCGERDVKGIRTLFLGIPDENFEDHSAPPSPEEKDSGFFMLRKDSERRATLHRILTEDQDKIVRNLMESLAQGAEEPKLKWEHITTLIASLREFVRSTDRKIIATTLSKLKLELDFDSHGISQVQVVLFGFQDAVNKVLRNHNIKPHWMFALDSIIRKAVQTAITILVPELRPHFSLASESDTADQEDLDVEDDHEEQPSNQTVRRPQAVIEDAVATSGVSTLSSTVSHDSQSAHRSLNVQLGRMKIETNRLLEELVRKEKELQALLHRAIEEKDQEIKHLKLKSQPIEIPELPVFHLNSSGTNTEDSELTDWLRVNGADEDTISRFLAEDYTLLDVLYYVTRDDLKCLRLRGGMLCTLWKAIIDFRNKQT
Particulars: read-out: Remaining protein kinase activity.

The target in a further assay is ERK2 (Homo sapiens, UniProt P28482). Particulars: read-out: Remaining protein kinase activity.
Chain of ERK2 (P28482 whole entry, species assumed): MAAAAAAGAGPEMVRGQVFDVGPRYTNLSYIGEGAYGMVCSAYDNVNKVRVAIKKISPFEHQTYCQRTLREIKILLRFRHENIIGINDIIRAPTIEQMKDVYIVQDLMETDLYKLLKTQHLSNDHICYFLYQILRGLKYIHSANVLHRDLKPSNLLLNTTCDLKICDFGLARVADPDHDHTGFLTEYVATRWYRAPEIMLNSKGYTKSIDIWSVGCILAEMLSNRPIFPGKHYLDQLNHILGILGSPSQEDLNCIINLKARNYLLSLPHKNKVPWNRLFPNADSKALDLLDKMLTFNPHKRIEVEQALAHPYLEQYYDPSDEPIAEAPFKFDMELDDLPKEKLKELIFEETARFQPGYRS
Another assay deals with MAPKAP-K3 (Homo sapiens, UniProt Q16644). Particulars: read-out: Remaining protein kinase activity.
Chain of MAPKAP-K3 (Q16644 whole entry): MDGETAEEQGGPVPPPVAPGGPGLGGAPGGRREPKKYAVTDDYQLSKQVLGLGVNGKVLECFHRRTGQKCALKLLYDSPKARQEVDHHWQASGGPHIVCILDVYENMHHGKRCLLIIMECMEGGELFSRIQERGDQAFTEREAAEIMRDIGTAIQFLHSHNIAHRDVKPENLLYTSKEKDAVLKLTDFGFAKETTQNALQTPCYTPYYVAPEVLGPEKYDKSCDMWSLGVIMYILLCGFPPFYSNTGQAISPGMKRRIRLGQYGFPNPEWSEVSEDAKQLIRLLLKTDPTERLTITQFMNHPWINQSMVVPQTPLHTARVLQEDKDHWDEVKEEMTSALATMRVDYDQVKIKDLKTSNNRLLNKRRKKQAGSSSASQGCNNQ
The next assay has as its target T2, MST2 (Homo sapiens, UniProt Q13188).
T2 sequence (Q13188 1-491): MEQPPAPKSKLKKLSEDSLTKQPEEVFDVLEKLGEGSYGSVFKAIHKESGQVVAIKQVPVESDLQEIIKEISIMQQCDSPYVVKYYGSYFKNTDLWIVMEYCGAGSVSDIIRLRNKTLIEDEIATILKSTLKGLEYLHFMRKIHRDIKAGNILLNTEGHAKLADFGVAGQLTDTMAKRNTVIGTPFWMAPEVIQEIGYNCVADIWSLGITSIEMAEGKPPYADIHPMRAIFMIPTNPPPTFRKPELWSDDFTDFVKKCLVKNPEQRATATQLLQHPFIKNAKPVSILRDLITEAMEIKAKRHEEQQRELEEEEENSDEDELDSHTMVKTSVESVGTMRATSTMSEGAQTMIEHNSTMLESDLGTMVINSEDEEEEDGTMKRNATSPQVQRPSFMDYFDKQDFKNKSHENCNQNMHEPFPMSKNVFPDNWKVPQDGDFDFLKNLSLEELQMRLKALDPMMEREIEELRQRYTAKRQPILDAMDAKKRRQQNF
Particulars: read-out: Remaining protein kinase activity.

Another assay addresses T3, NEK2a (Homo sapiens, UniProt P51955).
T3 sequence (P51955 1-445): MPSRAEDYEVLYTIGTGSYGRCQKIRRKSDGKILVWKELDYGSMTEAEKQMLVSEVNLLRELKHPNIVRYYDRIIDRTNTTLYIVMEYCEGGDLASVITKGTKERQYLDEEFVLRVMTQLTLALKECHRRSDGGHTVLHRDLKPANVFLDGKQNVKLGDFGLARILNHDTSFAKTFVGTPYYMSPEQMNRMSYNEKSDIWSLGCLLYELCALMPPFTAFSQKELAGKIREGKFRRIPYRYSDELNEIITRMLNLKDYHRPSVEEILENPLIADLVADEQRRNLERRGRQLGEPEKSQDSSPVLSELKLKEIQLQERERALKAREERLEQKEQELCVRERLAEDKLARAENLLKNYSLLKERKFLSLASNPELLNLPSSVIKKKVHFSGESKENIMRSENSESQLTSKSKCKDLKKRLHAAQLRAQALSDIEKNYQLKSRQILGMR
Particulars: read-out: Remaining protein kinase activity.

A further assay deals with SIK3 (Homo sapiens, UniProt Q9Y2K2).
Chain of SIK3 (Q9Y2K2 whole entry): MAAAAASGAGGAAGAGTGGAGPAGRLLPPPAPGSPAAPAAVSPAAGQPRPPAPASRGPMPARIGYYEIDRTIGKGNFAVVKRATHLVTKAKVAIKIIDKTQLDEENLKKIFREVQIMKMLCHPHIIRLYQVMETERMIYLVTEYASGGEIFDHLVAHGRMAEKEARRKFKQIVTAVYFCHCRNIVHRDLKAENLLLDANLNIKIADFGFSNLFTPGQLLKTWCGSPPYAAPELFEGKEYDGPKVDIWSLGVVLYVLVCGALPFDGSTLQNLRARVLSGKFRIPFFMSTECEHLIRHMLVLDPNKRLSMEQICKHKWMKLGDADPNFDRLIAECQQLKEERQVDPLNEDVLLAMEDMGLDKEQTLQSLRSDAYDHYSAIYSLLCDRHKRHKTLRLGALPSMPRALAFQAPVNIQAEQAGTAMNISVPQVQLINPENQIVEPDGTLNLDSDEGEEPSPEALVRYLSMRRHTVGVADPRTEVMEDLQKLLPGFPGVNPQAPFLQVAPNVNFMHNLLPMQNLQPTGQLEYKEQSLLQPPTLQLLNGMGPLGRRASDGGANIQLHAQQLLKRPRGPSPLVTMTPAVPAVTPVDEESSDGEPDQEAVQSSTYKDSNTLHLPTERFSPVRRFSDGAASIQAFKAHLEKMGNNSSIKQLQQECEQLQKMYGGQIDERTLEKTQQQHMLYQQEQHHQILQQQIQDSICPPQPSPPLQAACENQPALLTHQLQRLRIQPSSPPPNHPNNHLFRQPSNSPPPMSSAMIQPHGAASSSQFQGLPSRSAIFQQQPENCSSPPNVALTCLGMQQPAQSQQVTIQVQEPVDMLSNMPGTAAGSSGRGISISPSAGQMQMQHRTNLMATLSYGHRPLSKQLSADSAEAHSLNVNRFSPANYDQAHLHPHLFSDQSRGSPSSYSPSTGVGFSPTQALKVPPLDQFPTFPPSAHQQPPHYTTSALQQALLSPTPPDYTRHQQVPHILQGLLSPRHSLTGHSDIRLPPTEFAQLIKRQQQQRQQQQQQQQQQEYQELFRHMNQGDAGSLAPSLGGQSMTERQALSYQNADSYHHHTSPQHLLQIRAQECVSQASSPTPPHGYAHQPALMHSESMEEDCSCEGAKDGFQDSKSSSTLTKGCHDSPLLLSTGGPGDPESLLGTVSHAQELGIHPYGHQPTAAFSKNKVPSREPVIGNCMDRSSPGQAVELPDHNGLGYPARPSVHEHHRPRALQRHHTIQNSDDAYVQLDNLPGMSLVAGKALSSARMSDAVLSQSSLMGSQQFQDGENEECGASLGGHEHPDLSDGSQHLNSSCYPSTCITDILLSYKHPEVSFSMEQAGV
In a further assay the target is VEG-FR (Homo sapiens, UniProt P17948). Particulars: read-out: Remaining protein kinase activity.
Chain of VEG-FR (P17948 27-1338): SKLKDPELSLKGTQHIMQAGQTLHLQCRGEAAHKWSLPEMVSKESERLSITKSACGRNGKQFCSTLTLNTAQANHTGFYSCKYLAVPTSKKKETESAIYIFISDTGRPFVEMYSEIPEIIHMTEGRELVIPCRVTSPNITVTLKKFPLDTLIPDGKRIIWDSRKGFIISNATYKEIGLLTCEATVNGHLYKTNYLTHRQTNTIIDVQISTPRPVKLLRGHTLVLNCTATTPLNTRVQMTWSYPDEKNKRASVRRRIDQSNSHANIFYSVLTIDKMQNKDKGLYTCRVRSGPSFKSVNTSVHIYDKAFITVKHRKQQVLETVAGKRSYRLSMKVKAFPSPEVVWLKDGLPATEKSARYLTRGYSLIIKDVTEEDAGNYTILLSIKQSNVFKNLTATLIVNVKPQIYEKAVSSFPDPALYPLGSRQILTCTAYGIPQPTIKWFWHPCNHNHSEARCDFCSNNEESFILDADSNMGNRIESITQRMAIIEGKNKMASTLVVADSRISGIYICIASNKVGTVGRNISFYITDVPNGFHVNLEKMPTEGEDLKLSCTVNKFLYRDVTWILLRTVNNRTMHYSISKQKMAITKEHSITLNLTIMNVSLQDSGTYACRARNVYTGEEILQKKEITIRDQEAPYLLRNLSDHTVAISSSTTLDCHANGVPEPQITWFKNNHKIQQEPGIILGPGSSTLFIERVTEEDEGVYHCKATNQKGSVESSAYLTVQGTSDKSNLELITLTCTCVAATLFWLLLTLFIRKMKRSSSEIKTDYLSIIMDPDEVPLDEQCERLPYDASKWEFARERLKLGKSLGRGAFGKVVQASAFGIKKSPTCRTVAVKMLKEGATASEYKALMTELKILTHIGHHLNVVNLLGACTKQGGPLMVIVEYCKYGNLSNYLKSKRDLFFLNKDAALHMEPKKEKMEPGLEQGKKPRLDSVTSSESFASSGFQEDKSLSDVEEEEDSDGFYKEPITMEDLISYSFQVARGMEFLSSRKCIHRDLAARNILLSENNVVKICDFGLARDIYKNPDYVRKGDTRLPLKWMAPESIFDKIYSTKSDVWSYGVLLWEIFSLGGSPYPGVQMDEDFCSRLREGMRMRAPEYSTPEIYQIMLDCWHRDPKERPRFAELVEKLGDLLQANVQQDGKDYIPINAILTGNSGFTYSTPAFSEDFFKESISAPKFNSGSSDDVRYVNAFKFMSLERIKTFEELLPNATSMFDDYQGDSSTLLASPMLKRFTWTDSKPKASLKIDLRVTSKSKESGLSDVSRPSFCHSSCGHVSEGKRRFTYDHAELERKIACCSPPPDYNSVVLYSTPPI

Like-named read-outs stand apart in the source and are kept apart here.

The remaining activity is the signal under treatment as a percentage of the control signal. As to `COc1ccc2sc(-c3cncc(N)c3)nc2c1` [compound 1, 5-(5-Methoxybenzo[d]thiazol-2-yl)pyridin-3-amine], the remaining activity at 1 µM on ASK1 (ASK1, 1 μM) worked out at 116%; at ERK2 (ERK2, 1 μM), 102%; on MAPKAP-K3 (MAPKAP-K3, 1 μM), 115%; on MST2 (MST2, 1 μM), 124%; on NEK2a (NEK2a, 1 μM) it was 111%; at VEG-FR (VEG-FR, 1 μM), 110%. The remaining activity at 100 µM on ASK1 (ASK1, 100 μM) amounted to 150%; at ERK2 (ERK2, 100 μM) it was 96%; on MAPKAP-K3 (MAPKAP-K3, 100 μM), 74%; at MST2 (MST2, 100 μM), 32%; at NEK2a (NEK2a, 100 μM), 51%; on VEG-FR (VEG-FR, 100 μM), 20%. Besides, the “Remaining protein kinase activity” value at SIK3 (1 μM) is 106%; at SIK3 (100 μM), 19%.

Take `COc1ccc2sc(-c3cncc(NC(C)=O)c3)nc2c1` [PST-001, N-(5-(5-Methoxybenzo[d]thiazol-2-yl)pyridin-3-yl)acetamide]: the remaining activity at 1 µM on ASK1 came out at 114%; at ERK2, 115%; on MAPKAP-K3 it was 115%; on MST2, 120%; at NEK2a, 119%; on VEG-FR, 111%. Further, the remaining activity at 100 µM amounted to 131% at ASK1; 112% on ERK2; 113% at MAPKAP-K3; 54% on MST2; 41% at VEG-FR. For the same molecule, the “Remaining protein kinase activity” value on SIK3 (1 μM) is on record as 114%; on SIK3 (100 μM), 78%.

Values taken from paper PMC8617627, “Novel DYRK1A Inhibitor Rescues Learning and Memory Deficits in a Mouse Model of Down Syndrome” (Pharmaceuticals, 2021).
